{"source": "patent US7045343B2", "about": "“Sterilization indicator test packs” (3M Innovative Properties Company, priority 1998, dated 2006)", "tested_on": "enzyme associated with Bacillus stearothermophilus spores", "assay": "Rapid enzyme fluorescence readout of indicators after hydrogen peroxide plasma sterilization", "type": "biochemical", "details": "for FLUORESCENCE - PERCENT POSITIVE 1 HR / FLUORESCENCE - PERCENT POSITIVE 2 HR / FLUORESCENCE - PERCENT POSITIVE 3 HR / FLUORESCENCE - PERCENT POSITIVE 4 HR / FLUORESCENCE - PERCENT POSITIVE 5 HR: 1–22 min diffusion", "in_short": "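Indicators with a TYVEK closure held spores coated with various chemicals and were exposed to hydrogen peroxide plasma at 45–55 °C: 6–7 mg/ml chamber peroxide, diffusing 1–22 min at 6–10 Torr. Enzyme fluorescence was read hourly for 5 h at 60 °C. Growth was scored visually as a purple-to-yellow change after 168 h.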"}
{"substance": "Decaglyceryl Decaoleate", "values": [{"measurement": "accuracy of sterilization indicators compared to indicators made with untreated spores", "setting": "1–3 hours after exposure", "result": "improved"}, {"measurement": "accuracy of sterilization indicators compared to indicators made with untreated spores", "setting": "2–3 hours after exposure", "result": "improved"}, {"measurement": "accuracy of sterilization indicators compared to indicators made with untreated spores", "setting": "2–3 hours after exposure, concentrations of 5–100 mg/ml", "result": "improved"}, {"measurement": "FLUORESCENCE - PERCENT POSITIVE 1 HR", "setting": "Example 6, 10 mg/ml coating", "result": 83.7, "unit": "%"}, {"measurement": "FLUORESCENCE - PERCENT POSITIVE 2 HR", "setting": "Example 6, 10 mg/ml coating", "result": 100, "unit": "%"}, {"measurement": "FLUORESCENCE - PERCENT POSITIVE 3 HR", "setting": "Example 6, 10 mg/ml coating", "result": 100, "unit": "%"}, {"measurement": "FLUORESCENCE - PERCENT POSITIVE 4 HR", "setting": "Example 6, 10 mg/ml coating", "result": 100, "unit": "%"}, {"measurement": "FLUORESCENCE - PERCENT POSITIVE 5 HR", "setting": "Example 6, 10 mg/ml coating", "result": 100, "unit": "%"}, {"measurement": "FLUORESCENCE - PERCENT POSITIVE 1 HR", "setting": "Example 7, 10 mg/ml coating", "result": 83.7, "unit": "%"}, {"measurement": "FLUORESCENCE - PERCENT POSITIVE 2 HR", "setting": "Example 7, 10 mg/ml coating", "result": 100, "unit": "%"}, {"measurement": "FLUORESCENCE - PERCENT POSITIVE 3 HR", "setting": "Example 7, 10 mg/ml coating", "result": 100, "unit": "%"}, {"measurement": "FLUORESCENCE - PERCENT POSITIVE 4 HR", "setting": "Example 7, 10 mg/ml coating", "result": 100, "unit": "%"}, {"measurement": "FLUORESCENCE - PERCENT POSITIVE 5 HR", "setting": "Example 7, 10 mg/ml coating", "result": 100, "unit": "%"}, {"measurement": "FLUORESCENCE - PERCENT POSITIVE 1 HR", "setting": "Example 9, 5 mg/ml coating", "result": 65.7, "unit": "%"}, {"measurement": "FLUORESCENCE - PERCENT POSITIVE 2 HR", "setting": "Example 9, 5 mg/ml coating", "result": 100, "unit": "%"}, {"measurement": "FLUORESCENCE - PERCENT POSITIVE 3 HR", "setting": "Example 9, 5 mg/ml coating", "result": 100, "unit": "%"}, {"measurement": "FLUORESCENCE - PERCENT POSITIVE 4 HR", "setting": "Example 9, 5 mg/ml coating", "result": 100, "unit": "%"}, {"measurement": "FLUORESCENCE - PERCENT POSITIVE 5 HR", "setting": "Example 9, 5 mg/ml coating", "result": 100, "unit": "%"}, {"measurement": "FLUORESCENCE - PERCENT POSITIVE 1 HR", "setting": "Example 9, 7.5 mg/ml coating", "result": 83.5, "unit": "%"}, {"measurement": "FLUORESCENCE - PERCENT POSITIVE 2 HR", "setting": "Example 9, 7.5 mg/ml coating", "result": 100, "unit": "%"}, {"measurement": "FLUORESCENCE - PERCENT POSITIVE 3 HR", "setting": "Example 9, 7.5 mg/ml coating", "result": 100, "unit": "%"}, {"measurement": "FLUORESCENCE - PERCENT POSITIVE 4 HR", "setting": "Example 9, 7.5 mg/ml coating", "result": 100, "unit": "%"}, {"measurement": "FLUORESCENCE - PERCENT POSITIVE 5 HR", "setting": "Example 9, 7.5 mg/ml coating", "result": 100, "unit": "%"}, {"measurement": "FLUORESCENCE - PERCENT POSITIVE 1 HR", "setting": "Example 9, 10 mg/ml coating", "result": 83.7, "unit": "%"}, {"measurement": "FLUORESCENCE - PERCENT POSITIVE 2 HR", "setting": "Example 9, 10 mg/ml coating", "result": 100, "unit": "%"}, {"measurement": "FLUORESCENCE - PERCENT POSITIVE 3 HR", "setting": "Example 9, 10 mg/ml coating", "result": 100, "unit": "%"}, {"measurement": "FLUORESCENCE - PERCENT POSITIVE 4 HR", "setting": "Example 9, 10 mg/ml coating", "result": 100, "unit": "%"}, {"measurement": "FLUORESCENCE - PERCENT POSITIVE 5 HR", "setting": "Example 9, 10 mg/ml coating", "result": 100, "unit": "%"}, {"measurement": "FLUORESCENCE - PERCENT POSITIVE 1 HR", "setting": "Example 9, 50 mg/ml coating", "result": 85.0, "unit": "%"}, {"measurement": "FLUORESCENCE - PERCENT POSITIVE 2 HR", "setting": "Example 9, 50 mg/ml coating", "result": 90.2, "unit": "%"}, {"measurement": "FLUORESCENCE - PERCENT POSITIVE 3 HR", "setting": "Example 9, 50 mg/ml coating", "result": 100, "unit": "%"}, {"measurement": "FLUORESCENCE - PERCENT POSITIVE 4 HR", "setting": "Example 9, 50 mg/ml coating", "result": 100, "unit": "%"}, {"measurement": "FLUORESCENCE - PERCENT POSITIVE 5 HR", "setting": "Example 9, 50 mg/ml coating", "result": 100, "unit": "%"}, {"measurement": "FLUORESCENCE - PERCENT POSITIVE 1 HR", "setting": "Example 9, 100 mg/ml coating", "result": 73.3, "unit": "%"}, {"measurement": "FLUORESCENCE - PERCENT POSITIVE 2 HR", "setting": "Example 9, 100 mg/ml coating", "result": 86.7, "unit": "%"}, {"measurement": "FLUORESCENCE - PERCENT POSITIVE 3 HR", "setting": "Example 9, 100 mg/ml coating", "result": 100, "unit": "%"}, {"measurement": "FLUORESCENCE - PERCENT POSITIVE 4 HR", "setting": "Example 9, 100 mg/ml coating", "result": 100, "unit": "%"}, {"measurement": "FLUORESCENCE - PERCENT POSITIVE 5 HR", "setting": "Example 9, 100 mg/ml coating", "result": 100, "unit": "%"}]}
{"substance": "Decaglyceryl Monostearate", "values": [{"measurement": "FLUORESCENCE - PERCENT POSITIVE 1 HR", "setting": "Example 7, 50 mg/ml coating", "result": 64.4, "unit": "%"}, {"measurement": "FLUORESCENCE - PERCENT POSITIVE 2 HR", "setting": "Example 7, 50 mg/ml coating", "result": 83.0, "unit": "%"}, {"measurement": "FLUORESCENCE - PERCENT POSITIVE 3 HR", "setting": "Example 7, 50 mg/ml coating", "result": 89.8, "unit": "%"}, {"measurement": "FLUORESCENCE - PERCENT POSITIVE 4 HR", "setting": "Example 7, 50 mg/ml coating", "result": 91.3, "unit": "%"}, {"measurement": "FLUORESCENCE - PERCENT POSITIVE 5 HR", "setting": "Example 7, 50 mg/ml coating", "result": 91.3, "unit": "%"}]}
